Measurements reported in ChEMBL document CHEMBL3046547, “Pyrethroid resistance in the tomato red spider mite, Tetranychus evansi, is associated with mutation of the para-type sodium channel” (2011).
Converted amounts (≈) assume the structure as drawn.

Experiments:
Assay type in all cases: functional
[1] = tested on: Tetranychus urticae; assay: Insecticidal activity against Tetranychus urticae LS-VL (two-spotted spider mite)
[2] = tested on: Tetranychus evansi; assay: Insecticidal activity against Tetranychus evansi R2 in clean French bean leaf assessed as mortality at 26 degC and 16 hr day length measured after 48 hr by microimmersion protocol
[3] = tested on: Tetranychus evansi; assay: Insecticidal activity against Tetranychus evansi R1 in clean French bean leaf assessed as mortality at 26 degC and 16 hr day length measured after 48 hr by microimmersion protocol
[4] = tested on: Tetranychus evansi; assay: Insecticidal activity against Tetranychus evansi TOR in clean French bean leaf assessed as mortality at 26 degC and 16 hr day length measured after 48 hr by microimmersion protocol
[5] = tested on: Tetranychus evansi; assay: Insecticidal activity against Tetranychus evansi ST JEA in clean French bean leaf assessed as mortality at 26 degC and 16 hr day length measured after 48 hr by microimmersion protocol
[6] = tested on: Tetranychus urticae; assay: Insecticidal activity against Tetranychus urticae (two-spotted spider mite)

Structure (SMILES) | LC50 [1] [µg/mL] | LC50 [2] [µg/mL] | LC50 [3] [µg/mL] | LC50 [4] [µg/mL] | LC50 [5] [µg/mL] | LC50 [6] [µg/mL]
Cc1c(COC(=O)[C@@H]2[C@H](/C=C(\Cl)C(F)(F)F)C2(C)C)cccc1-c1ccccc1 (relative stereo) [BIFENTHRIN] | 5.5 (≈ 0.013 mM) | 3560 (≈ 8.42 mM) | 1860 (≈ 4.39 mM) | 92 (≈ 0.218 mM) | 135 (≈ 0.318 mM) | –
CC[C@H](C)[C@H]1O[C@]2(C=C[C@@H]1C)C[C@@H]1C[C@@H](C/C=C(\C)[C@@H](O[C@H]3C[C@H](OC)[C@@H](O[C@H]4C[C@H](OC)[C@@H](O)[C@H](C)O4)[C@H](C)O3)[C@@H](C)/C=C/C=C3\CO[C@@H]4[C@H](O)C(C)=C[C@@H](C(=O)O1)[C@]34O)O2.CO[C@H]1C[C@H](O[C@H]2[C@H](C)O[C@@H](O[C@@H]3/C(C)=C/C[C@@H]4C[C@@H](C[C@]5(C=C[C@H](C)[C@@H](C(C)C)O5)O4)OC(=O)[C@@H]4C=C(C)[C@@H](O)[C@H]5OC/C(=C\C=C\[C@@H]3C)[C@]54O)C[C@@H]2OC)O[C@@H](C)[C@@H]1O [ABAMECTIN] | – | 0.19 | 0.18 | 0.24 | 0.23 | –
CCOP(=S)(OCC)Oc1nc(Cl)c(Cl)cc1Cl [CHLORPYRIFOS] | – | 4380 (≈ 12.5 mM) | 3780 (≈ 10.8 mM) | 4530 (≈ 12.9 mM) | 3760 (≈ 10.7 mM) | 4 (≈ 0.0114 mM)
